{"source": "patent US20240269139A1", "about": "“COMPOUNDS FOR TARGETED PROTEIN DEGRADATION OF KINASES” (DANA-FARBER CANCER INSTITUTE, INC., priority 2020, published 2024)", "assay_type_in_all_cases": "cell-based", "key": {"[1]": {"molecular_target": "T1, protein kinases (human kinome) (Homo sapiens, UniProt Q16854)", "T1 sequence (Q16854 40-277)": "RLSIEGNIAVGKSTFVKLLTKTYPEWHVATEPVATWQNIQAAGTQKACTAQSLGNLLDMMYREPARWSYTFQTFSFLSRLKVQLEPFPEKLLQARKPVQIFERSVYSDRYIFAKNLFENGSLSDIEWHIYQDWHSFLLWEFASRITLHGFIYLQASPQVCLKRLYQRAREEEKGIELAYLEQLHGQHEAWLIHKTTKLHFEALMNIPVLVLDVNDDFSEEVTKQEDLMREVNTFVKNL", "conditions": "DGUOK (Q16854)"}, "[2]": {"molecular_target": "T2, protein kinases (human kinome) (Homo sapiens, UniProt Q9NRH2)", "T2 sequence (Q9NRH2 1-765)": "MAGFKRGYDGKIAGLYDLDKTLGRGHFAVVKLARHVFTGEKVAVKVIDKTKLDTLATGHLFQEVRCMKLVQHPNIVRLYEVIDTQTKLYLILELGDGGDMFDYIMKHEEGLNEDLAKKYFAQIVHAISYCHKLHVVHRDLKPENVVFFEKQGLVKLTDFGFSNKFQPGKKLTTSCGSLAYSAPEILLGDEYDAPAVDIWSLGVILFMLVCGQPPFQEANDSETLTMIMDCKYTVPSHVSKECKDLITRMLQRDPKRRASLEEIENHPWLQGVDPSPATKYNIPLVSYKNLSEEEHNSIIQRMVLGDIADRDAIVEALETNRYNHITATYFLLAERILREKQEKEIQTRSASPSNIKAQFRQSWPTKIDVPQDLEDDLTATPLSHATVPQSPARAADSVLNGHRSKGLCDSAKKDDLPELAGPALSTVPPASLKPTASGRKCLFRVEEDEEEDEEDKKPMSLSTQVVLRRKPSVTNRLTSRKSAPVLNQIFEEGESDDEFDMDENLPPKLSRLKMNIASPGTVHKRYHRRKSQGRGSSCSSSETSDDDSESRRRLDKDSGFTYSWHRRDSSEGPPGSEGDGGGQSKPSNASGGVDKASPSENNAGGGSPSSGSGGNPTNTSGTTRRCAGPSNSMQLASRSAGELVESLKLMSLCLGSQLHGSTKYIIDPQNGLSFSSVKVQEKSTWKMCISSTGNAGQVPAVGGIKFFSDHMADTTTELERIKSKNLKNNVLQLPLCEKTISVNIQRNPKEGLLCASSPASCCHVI", "conditions": "for logFC: SNRK (Q9NRH2)"}, "[3]": {"molecular_target": "protein kinases (human kinome) (Homo sapiens, UniProt P53350)", "sequence (P53350 whole entry)": "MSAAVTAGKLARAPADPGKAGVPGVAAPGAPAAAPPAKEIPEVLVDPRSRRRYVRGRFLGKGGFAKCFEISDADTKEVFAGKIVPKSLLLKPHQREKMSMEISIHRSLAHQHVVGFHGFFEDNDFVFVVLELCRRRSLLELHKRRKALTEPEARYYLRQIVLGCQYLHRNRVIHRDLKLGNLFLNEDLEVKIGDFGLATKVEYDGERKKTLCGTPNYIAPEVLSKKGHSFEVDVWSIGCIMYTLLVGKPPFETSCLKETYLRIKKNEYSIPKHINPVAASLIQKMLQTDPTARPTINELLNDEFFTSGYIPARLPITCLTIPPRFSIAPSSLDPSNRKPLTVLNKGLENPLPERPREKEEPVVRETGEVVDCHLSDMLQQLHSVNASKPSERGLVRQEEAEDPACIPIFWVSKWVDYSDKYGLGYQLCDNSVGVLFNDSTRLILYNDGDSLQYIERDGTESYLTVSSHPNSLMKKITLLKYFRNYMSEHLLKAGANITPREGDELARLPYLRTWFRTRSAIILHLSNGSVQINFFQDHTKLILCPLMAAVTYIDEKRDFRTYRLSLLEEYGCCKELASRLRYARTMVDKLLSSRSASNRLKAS"}, "[4]": {"molecular_target": "protein kinases (human kinome) (Homo sapiens, UniProt P06493)", "sequence (P06493 whole entry)": "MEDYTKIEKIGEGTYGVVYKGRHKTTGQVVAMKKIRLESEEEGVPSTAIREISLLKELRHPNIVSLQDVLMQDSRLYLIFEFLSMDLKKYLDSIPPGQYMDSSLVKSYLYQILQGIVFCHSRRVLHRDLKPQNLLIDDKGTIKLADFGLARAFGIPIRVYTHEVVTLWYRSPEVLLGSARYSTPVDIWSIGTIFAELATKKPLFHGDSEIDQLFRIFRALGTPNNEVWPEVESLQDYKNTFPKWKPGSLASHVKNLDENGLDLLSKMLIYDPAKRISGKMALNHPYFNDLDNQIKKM", "conditions": "CDK1 P06493"}}, "note": "Where two headings read alike, the source gives them in different places."}
{"compound": "CC(=O)c1c(C)c2cnc(Nc3ccc(N4CCN(CCOCCOCCOCCNC(=O)COc5cccc6c5C(=O)N(C5CCC(=O)NC5=O)C6=O)CC4)cn3)nc2n(C2CCCC2)c1=O", "note": "(stereo not drawn) [BSJ.03.123]", "values": [{"measurement": "logFC", "setting": "[1]; experiment wp084", "value": "−0.4377"}]}
{"compound": "CN(C)C(=O)c1cc2cnc(Nc3ccc(N4CCN(CCCCNC(=O)COc5cccc6c5C(=O)N(C5CCC(=O)NC5=O)C6=O)CC4)cn3)nc2n1C1CCCC1", "note": "(stereo not drawn) [BSJ.04.132]", "values": [{"measurement": "logFC", "setting": "[1]; experiment wp084", "value": "−0.5254"}]}
{"compound": "O=C(COc1cccc2c1C(=O)N(C1CCC(=O)NC1=O)C2=O)NCCCCCCCN1CCc2cc(Nc3ncc(C4CC4)c(NCCCNC(=O)C4CCC4)n3)ccc2C1", "note": "(stereo not drawn) [BSJ.04.178]", "values": [{"measurement": "logFC", "setting": "[2]; experiment wp134", "value": "−1.523"}, {"measurement": "logFC of SNRK (Q9NRH2)", "setting": "[2]; experiment wp134", "value": "−1.523"}]}
{"compound": "Cc1ncsc1-c1ccc([C@H](C)NC(=O)[C@@H]2C[C@@H](O)CN2C(=O)[C@@H](NC(=O)CCCCCN2CCc3cc(Nc4ncc(C5CC5)c(NCCCNC(=O)C5CCC5)n4)ccc3C2)C(C)(C)C)cc1", "note": "[BSJ.05.026]", "values": [{"measurement": "logFC of SNRK (Q9NRH2)", "setting": "[2]; Experiment wp195", "value": "−1.856"}, {"measurement": "logFC", "setting": "[2]; experiment wp195", "value": "−1.856"}]}
{"compound": "CC(C)(C)c1nc(-c2cccc(NS(=O)(=O)c3c(F)cccc3F)c2F)c(-c2ccnc(NCCOCCNC(=O)CCOCCOCCNc3cccc4c3C(=O)N(C3CCC(=O)NC3=O)C4=O)n2)s1", "note": "(stereo not drawn) [DD.03.106]", "values": [{"measurement": "logFC PLK1", "setting": "[3]; PLK1 P53350, experiment wp147, 4 uM", "value": "−0.3533"}, {"measurement": "logFC", "setting": "[3]; PLK (P53350), experiment wp147, 4 uM", "value": "−0.3533"}, {"measurement": "logFC", "setting": "[4]; experiment wp147, 2 uM", "value": "−0.5015"}, {"measurement": "logFC CDK1", "setting": "[4]; experiment wp147, 2 uM", "value": "−0.5015"}, {"measurement": "logFC", "setting": "[4]; experiment wp147, 4 uM", "value": "−0.5416"}, {"measurement": "logFC CDK1", "setting": "[4]; experiment wp147, 4 uM", "value": "−0.5416"}, {"measurement": "logFC", "setting": "[1]; experiment wp147, 4 uM", "value": "−0.5418"}]}
{"compound": "CC(C)(C)c1nc(-c2cccc(NS(=O)(=O)c3c(F)cccc3F)c2F)c(-c2ccnc(NCCOCCNC(=O)CCOCCOCCNc3cccc4c3CN(C3CCC(=O)NC3=O)C4=O)n2)s1", "note": "(stereo not drawn) [DD.03.107]", "values": [{"measurement": "logFC", "setting": "[1]; experiment wp147, 1 uM", "value": "−0.5245"}, {"measurement": "logFC", "setting": "[1]; experiment wp147, 4 uM", "value": "−0.9678"}]}
{"compound": "Cc1cnc(Nc2ccc(N3CCN(CCCCCCC(=O)N[C@H](C(=O)N4C[C@H](O)C[C@H]4C(=O)N[C@@H](C)c4ccc(-c5scnc5C)cc4)C(C)(C)C)CC3)cc2)nc1Nc1cccc(S(=O)(=O)NC(C)(C)C)c1", "note": "[JWG.123]", "values": [{"measurement": "logFC of SNRK (Q9NRH2)", "setting": "[2]; Experiment wp195", "value": "−1.197"}, {"measurement": "logFC", "setting": "[2]; experiment wp195", "value": "−1.197"}]}
{"compound": "Cc1ncsc1-c1ccc([C@H](C)NC(=O)[C@@H]2C[C@@H](O)CN2C(=O)[C@@H](NC(=O)CCCCCN2CCN(c3ccc(Nc4ncc5scc(-c6cccc(NS(C)(=O)=O)c6)c5n4)cc3)CC2)C(C)(C)C)cc1", "note": "[RSS0680, (2S,4R)-1-((S)-3,3-Dimethyl-2-(6-(4-(4-((7-(3-(methylsulfonamido)phenyl)thieno[3,2-d]pyrimidin-2-yl)amino)phenyl)piperazin-1-yl)hexanamido)butanoyl)-4-hydroxy-N—((S)-1-(4-(4-methylthiazol-5yl)phenyl)ethyl)pyrrolidine-2-carboxamide]", "values": [{"measurement": "logFC", "setting": "[4]; experiment wp117", "value": "−0.3587"}, {"measurement": "logFC CDK1", "setting": "[4]; experiment wp117", "value": "−0.3587"}, {"measurement": "logFC of SNRK (Q9NRH2)", "setting": "[2]; Experiment wp117", "value": "−0.6321"}, {"measurement": "logFC", "setting": "[2]; experiment wp080", "value": "−0.5567"}, {"measurement": "logFC", "setting": "[2]; experiment wp117", "value": "−0.6321"}, {"measurement": "logFC of SNRK (Q9NRH2)", "setting": "[2]; experiment wp080", "value": "−0.5567"}]}
{"compound": "C=CCn1c(=O)c2cnc(Nc3ccc(N4CCN(CCCNc5cccc6c5C(=O)N(C5CCC(=O)NC5=O)C6=O)CC4)cc3)nc2n1-c1cccc(C(C)(C)O)n1", "note": "(stereo not drawn) [ZNL.02.096]", "values": [{"measurement": "logFC", "setting": "[1]; experiment wp118", "value": "−0.5337"}]}
